Test system: SCID CD4+ CD45RBhigh T cell transfer colitis model
Assay: SCID CD4+ CD45RBhigh T cell transfer colitis model
Type: in vivo, SCID mice
Settings: for Total number of leukocytes (cells/μL): blood on the day after final administration; for Total number of leukocytes (cells/μL) / Change ratio of body weight (%) On the fourth week / Change ratio of body weight (%) On the third week: mean ± standard error
Source text: SCID CD4^+ CD45RB^high T cell transfer colitis model has been reported as a model resembling to Crohn's disease due to its histopathological characteristics and the produced cytokines (Powrie F et al, Immunity, 1, 553-562, 1994). In addition, this model has also been used for evaluation of a medicine which is used in the treatment of inflammatory bowel disease and its effectiveness has been reported (Liu Z et al., J. Autoimmunl., 29, 187-194, 2007).
C.B-17/Icr-scid/scid Jcl (SCID mice) (female, 8 weeks of age, mouse to be transferred) and BALB/c Cr Slc (BALB/c mice) (female, 8 weeks of age, mouse for transfer cell preparation) were obtained and used in the test. CD4^+ CD45RB^high T cells (naive T cells) prepared from the spleen of BALB/c mice were transferred intraperitoneally into the SCID mice at a concentration of 3×10^5 cells/body, and then colitis was induced by breeding it for 4 weeks. Preparation of the CD4^+ CD45RB^high T cells was carried out in accordance with the method of Uraushihara et al. (J. Immunol., 171, 708-716, 2003) and FACSAriaCell Sorter (Becton Dickinson Japan) was used as a cell separator.
The compound produced in Example 27 (compound 27) was dissolved in distilled water and orally administered at doses of 0.3 mg/kg, 1 mg/kg and 3 mg/kg, once a day for 4 weeks starting on the preceding day of cell transfer. Distilled water alone was administered to the vehicle group. Body weight was determined every day during the administration period. The change ratio (%) of the body weight on the determination day was calculated based on the body weight on the day of the start of administration. On the next day of final administration, blood was collected and the large intestine was extracted. The total number of leukocytes was measured using the collected blood. After fixing the extracted large intestine with formalin, tissue sections were prepared and hematoxylin-eosin staining was carried out. Evaluation was performed in accordance with the scoring system (Uraushihara K et al., J. Immunol., 171, 708-716, 2003). That is, the large intestine was roughly divided into 3 regions (proximal region, middle region and distal region), and scoring was carried out on the 3 layers, which are mucosa, submucosa and muscularis, of each region. By totaling the obtained scores of each region, the value having the highest total score among the three regions was used as the score of the individual. The change ratio of the body weight and the total number of leukocytes were shown by mean±standard error and the pathological score was shown by median.

[1] = 0.3 mg/kg orally once a day for 4 weeks
[2] = 1 mg/kg orally once a day for 4 weeks
[3] = 3 mg/kg orally once a day for 4 weeks
[4] = in comparison with the vehicle group, result in words

SMILES: C[C@](N)(CO)CCCc1ccc(Sc2cccc(C(F)(F)F)c2)cc1Cl.Cl [Compound 27, (R)-2-amino-5-[2-chloro-4-(3-trifluoromethylphenylthio)phenyl]-2-methylpentan-1-ol hydrochloride]
- Total number of leukocytes (cells/μL) [1]: 2733 ± 561 cells/μL
- Change ratio of body weight (%) On the fourth week [1]: −1.0 ± 2.2%
- Pathological score (0.3 mg/kg orally once a day for 4 weeks, large intestine histology, median): 5
- Change ratio of body weight (%) On the third week [1]: 1.1 ± 1.4 %
- Total number of leukocytes (cells/μL) [2]: 1980 ± 241 cells/μL
- Change ratio of body weight (%) On the fourth week [2]: −1.4 ± 2.0%
- Pathological score (1 mg/kg orally once a day for 4 weeks, large intestine histology, median): 5
- Change ratio of body weight (%) On the third week [2]: 1.5 ± 0.8 %
- Total number of leukocytes (cells/μL) [3]: 1720 ± 327 cells/μL
- Change ratio of body weight (%) On the fourth week [3]: −0.8 ± 2.0 %
- Pathological score (3 mg/kg orally once a day for 4 weeks, large intestine histology, median): 3.5
- Change ratio of body weight (%) On the third week [3]: 0.5 ± 1.2 %
- body weight loss [4]: significantly suppressed
- total number of leukocytes [4]: significantly suppressed
- effect on the SCID CD4+ CD45RBhigh T cell transfer colitis model (overall conclusion in words): shows the suppressive effect
- Pathological score (result in words): suppressive effect was found

Reference: patent US8476305B2, “Therapeutic agent or prophylactic agent for inflammatory bowel disease comprising amino alcohol derivative as active ingredient” (Kyorin Pharmaceutical Co., Ltd., priority 2008, dated 2013)
